In US20050113420A1, “Methionine aminopeptidase inhibitor” (priority 2002, published 2005):

Experiments:
[1] = target: hMetAP1 (Homo sapiens, UniProt P53582); experiment: hMetAP1 inhibition; format: biochemical
From the text: (§1) Hydrolysis of the synthesized Met-S-C-Phe thiopeptolide substrate generates a free thiol group, which reacts with excessive DTNB instantly to produce a highly chromogenic product, 3-carboxyl-4-nitrothiophenol (ε412=13,600 M^−1cm^−1). Therefore, the enzymatic reaction catalyzed by MetAP can be continuously monitored at 412 nm on a SpectraMAX 340 microplate reader.
(§2) Employed conventional screening method (Anal Biochem. 2000, 280: 159-65)
(§3) All the compounds were initially screened at the multiple concentrations 2 μg/mL, 20 μg/mL, 100 μg/mL. When the inhibitory activities of the compounds were larger than 50%, their estimated IC50 value were determinated at eight inhibitor concentrations.

[2] = target: T1, EcMetAP (Escherichia coli, UniProt P0AE18); experiment: EcMetAP inhibition, Met-S-C-Phe thiopeptolide/DTNB assay at 412 nm; format: biochemical, E. coli; conditions: for IC50: Co-loaded enzyme, estimated IC50 at eight inhibitor concentrations, read-out: IC50(μM) EMetAP
T1 construct: made in house; host or cells: E. coli
From the text: EcMetAP was cloned and overexpressed in E. coli, and purified by (NH4)2SO4 precipitation and Q-Sepharose column separation to give apo-EcMetAP.
as §1, §2, §3

[3] = target: type 2 methionine aminopeptidase (Homo sapiens, UniProt P50579); conditions: covalent binding inhibitors; cited from earlier work
[4] = target: EcMetAP1 (Escherichia coli, UniProt P0AE18); conditions: read-out: IC50 EcMetAP1; cited from earlier work
Sequence of EcMetAP1 (P0AE18 whole entry): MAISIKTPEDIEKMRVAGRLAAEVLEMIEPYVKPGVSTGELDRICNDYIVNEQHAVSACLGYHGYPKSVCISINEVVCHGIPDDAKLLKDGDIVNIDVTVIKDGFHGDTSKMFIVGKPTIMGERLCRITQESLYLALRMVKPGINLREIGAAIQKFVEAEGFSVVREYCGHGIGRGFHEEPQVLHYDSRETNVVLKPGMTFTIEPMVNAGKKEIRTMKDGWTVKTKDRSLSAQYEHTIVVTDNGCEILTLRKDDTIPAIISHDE

T1 sequence (P0AE18 whole entry): as above
Sequence of type 2 methionine aminopeptidase (P50579 whole entry): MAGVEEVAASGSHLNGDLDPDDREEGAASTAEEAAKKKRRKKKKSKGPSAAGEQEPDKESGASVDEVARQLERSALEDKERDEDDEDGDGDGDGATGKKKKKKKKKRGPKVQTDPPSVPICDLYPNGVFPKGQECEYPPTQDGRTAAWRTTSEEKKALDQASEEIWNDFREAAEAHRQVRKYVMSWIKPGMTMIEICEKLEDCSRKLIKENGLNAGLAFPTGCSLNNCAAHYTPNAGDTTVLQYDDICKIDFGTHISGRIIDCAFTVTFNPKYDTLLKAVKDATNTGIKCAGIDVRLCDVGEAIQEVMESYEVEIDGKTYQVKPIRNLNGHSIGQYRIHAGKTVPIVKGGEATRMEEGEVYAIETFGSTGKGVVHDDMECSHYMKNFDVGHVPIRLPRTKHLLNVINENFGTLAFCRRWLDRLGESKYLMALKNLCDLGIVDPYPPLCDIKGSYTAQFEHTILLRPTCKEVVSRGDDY

**Q.** Which results are given for `O=C(Oc1cccnc1C(=O)Nc1nccs1)c1cccc([N+](=O)[O-])c1` [Compound 41]?
**A.** IC50 [1]: 7.3 µM; IC50 [2]: 1.91 µM

**Q.** With `CO[C@@H]1[C@H](OC(=O)NC(=O)CCl)CC[C@]2(CO2)[C@H]1[C@@]1(C)O[C@@H]1CC=C(C)C` [TNP-470] as the compound, how does the “IC50 MetAPs” value [3] read?
**A.** Its value is “in the nM range”.

**Q.** Which inhibition at 20 µg/mL ([2]; read-out: inhibition of EMetAP) does the source give for `Nc1ccccc1C(=O)Nc1nccs1` [Compound 7] here?
**A.** The inhibition at 20 µg/mL was 30%.

**Q.** With `O=C(Nc1cccnc1C(=O)Nc1nccs1)c1ccccc1` [Compound 51] as the compound, how does the IC50 [2] read?
**A.** Its IC50 is 0.14 µM.

**Q.** For `O=C(Nc1nccs1)c1ncccc1OCc1ccccc1` [Compound 47], which IC50 [1] is on record?
**A.** The IC50 was 7.8 µM.

**Q.** What about the IC50 [2] of the same compound?
**A.** Its IC50 is 5.31 µM.

**Q.** For `O=C(Oc1cccnc1C(=O)Nc1nccs1)c1ccccc1` [Compound 36], which IC50 [1] is on record?
**A.** Its IC50 is 28.7 µM.

**Q.** And the IC50 [2]?
**A.** The IC50 was 1.1 µM.

**Q.** With `CC(C)(C)OC(=O)Nc1cccnc1C(=O)Nc1nccs1` [Compound 52] as the compound, how does the IC50 [2] read?
**A.** The IC50 was 1.25 µM.

**Q.** Which IC50 [2] does the source give for `O=C(Nc1ncc(Br)s1)c1ccccn1` [Compound 17] here?
**A.** The IC50 was 6 µM.

**Q.** With `O=C(Nc1cccnc1C(=O)Nc1nccs1)c1ccc(F)cc1` [Compound 53] as the compound, how does the IC50 [2] read?
**A.** The IC50 was 0.05 µM.

**Q.** Which results are given for `Nc1cccnc1C(=O)Nc1nccs1` [Compound 50]?
**A.** IC50 [1]: 11 µM; IC50 [2]: 5.56 µM

**Q.** Which IC50 [1] does the source give for `CC(=O)Oc1cccnc1C(=O)Nc1nccs1` [Compound 34] here?
**A.** Its IC50 is 29 µM.

**Q.** And the IC50 [2]?
**A.** The IC50 was 8.2 µM.

**Q.** Which IC50 [2] does the source give for `O=C(Nc1nccs1)c1cc(Cl)ccn1` [Compound 16] here?
**A.** Its IC50 is 4.84 µM.

**Q.** For AHHPA-Ala-Leu-Val-Phe-OMe, which IC50 [4] is on record?
**A.** Its IC50 is 5 µM.

**Q.** With `COc1cccnc1C(=O)Nc1nccs1` [Compound 35] as the compound, how does the IC50 [1] read?
**A.** The IC50 was 20.9 µM.

**Q.** And the IC50 [2]?
**A.** The IC50 was 4.49 µM.

**Q.** Which “IC50 MetAPs” value [3] does the source give for `CO[C@@H]1[C@H](OC(=O)/C=C/C=C/C=C/C=C/C(=O)O)CC[C@]2(CO2)[C@H]1[C@@]1(C)O[C@@H]1CC=C(C)C` [fumagillin] here?
**A.** The value was “in the nM range”.

**Q.** What does the source list for `COc1ccccc1C(=O)Oc1cccnc1C(=O)Nc1nccs1` [Compound 37]?
**A.** IC50 [1]: 15.4 µM; IC50 [2]: 1.9 µM

**Q.** With `O=C(Oc1cccnc1C(=O)Nc1nccs1)c1ccc(F)c(Br)c1` [Compound 45] as the compound, how does the IC50 [1] read?
**A.** Its IC50 is 17.4 µM.

**Q.** What about the IC50 [2] of the same compound?
**A.** Its IC50 is 1.35 µM.

**Q.** Which IC50 [2] does the source give for `COc1ccnc(C(=O)Nc2nccs2)c1` [Compound 30] here?
**A.** Its IC50 is 9.22 µM.

**Q.** Which IC50 [2] does the source give for `O=C(Nc1nccs1)c1ccc2ccccc2n1` [Compound 27] here?
**A.** Its IC50 is 51 µM.

**Q.** For `O=C(Nc1nccs1)c1cccc(CO)n1` [Compound 32], which IC50 [2] is on record?
**A.** Its IC50 is 5.82 µM.

**Q.** For `Cc1nc(C(=O)Nc2nccs2)cs1` [Compound 55], which IC50 [2] is on record?
**A.** The IC50 was 0.4 µM.

**Q.** With `O=C(Nc1nccs1)c1ncccc1O` [Compound 31] as the compound, how does the IC50 [2] read?
**A.** Its IC50 is 2.33 µM.

**Q.** With `COc1ccccc1/C=C/C(=O)Oc1cccnc1C(=O)Nc1nccs1` [Compound 44] as the compound, how does the IC50 [2] read?
**A.** Its IC50 is 1.8 µM.

**Q.** Which results are given for `O=C(Oc1cccnc1C(=O)Nc1nccs1)c1ccc(F)cc1` [Compound 46]?
**A.** IC50 [1]: 7 µM; IC50 [2]: 1.31 µM
